According to US9248193B2, “Formulations of phenyl uracil compounds” (AbbVie Inc., priority 2011, dated 2016):

Assay: Light degradation under ICH photo condition
Assay type: physicochemical

Stability in solution upon exposure to light: may convert into an alternative isomer
Structure (SMILES): COc1c(/C=C/c2ccc(NS(C)(=O)=O)cc2)cc(-n2ccc(=O)[nH]c2=O)cc1C(C)(C)C [Compound A, (E)-N-(4-(3-tert-butyl-5-(2,4-dioxo-3,4-dihydropyrimidin-1(2H)-yl)-2-methoxystyryl)phenyl)methanesulfonamide]
